Data: patent publication US9376382B2, “N-substituted isopropyldimethyl azulene sulfonamide derivatives, and preparation method and use thereof” (Sichuan Guokang Pharmaceutical Co., Ltd., priority 2011, dated 2016)

Experiments:
[1] = High-temperature test (60° C.), stability study; assay type: physicochemical; conditions: open-stored; for Appearance Day 5: Day 5, cell wraps; for Appearance Day 5 / Appearance Day 10: first line given; for Appearance Day 10: Day 10, cell wraps;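 on all read-outs here: samples kept uncovered in dishes at 60 °C for up to 10 days and examined on Day 5 and Day 10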
Experimental: (§1) The test samples were open-stored in culture dishes at 60° C. for 10 days, and taken and detected on Day 5 and Day 10. • The characteristics, especially colour change were observed. • Melting points were measured by automatic melting point apparatus. • By self-reflection, TLC is used to observe whether the spot numbers were increased after 5 days and 10 days.

[2] = High humidity test (25° C., relative humidity 90% ± 5%), stability study; assay type: physicochemical; conditions: RH 90% ± 5%; for Appearance Day 0: Day 0, cell wraps; for Appearance Day 0 / Appearance Day 5 / Appearance Day 10: first line given; for Appearance Day 5: Day 5, cell wraps; for Appearance Day 10: Day 10, cell wraps;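 on all read-outs here: samples kept uncovered in sealed humidity desiccators, appearance judged mainly by colour change, melting point on an automatic apparatus, TLC checked for extra spots versus start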
Experimental: (§2) The test samples were open-stored in closed constant humidity desiccators under the condition of 25° C. and relative humidity of 90%+5% for 10 days, and taken and detected on Day 5 and Day 10. Meanwhile, each sample was accurately weighed before and after test.
The characteristics, especially colour change was observed.
Melting points were measured by an automatic melting point apparatus.
By self-reflection, TLC is used to observe whether the spot numbers were increased after 5 days and 10 days.

[3] = Intense light irradiation test (4500LX ± 500LX), stability study; assay type: physicochemical; conditions: for Appearance Day 0: Day 0, cell wraps; for Appearance Day 0 / Appearance Day 5 / Appearance Day 10: first line given; for Appearance Day 5: Day 5, cell wraps; for Appearance Day 10: Day 10, cell wraps
Experimental: (§3) The test samples were open-stored in “adjustable light boxes” under the conditions of illumination of 4500LX±500LX for 10 days, and taken and detected on Day 5 and Day 10 with regards to dry items. • The characteristics, especially colour change was observed. • Melting points were measured by an automatic melting point apparatus. • By self-reflection, TLC is used to observe whether the spot numbers were increased after 5 days and 10 days.

[4] = Stability studies (light, humidity, heat), overall comparison; conditions: for light, humidity and heat stability in words: summary of high-temperature, high humidity and intense light tests
Experimental: as §1, §2, §3

[5] = test system: ethanol-induced gastric ulcer; assay: Anhydrous ethanol-induced gastric ulcer in mice; assay type: in vivo, Kunming mice; set-up: key to Gastri ulcer score (X ± SD) / Ulcer score (X ± SD) / Gastric ulcer score (X ± SD): summed pathology score: congestion 1, hemorrhage/erosion 1, linear erosion 3; conditions: for Inhibition rate (%): inhibition rate of ulcer vs model group; for Gastric ulcer score (X ± SD) / Gastri ulcer score (X ± SD) / Ulcer score (X ± SD): mice, intragastric once a day for five days; for anti-gastric ulcer effect in words: ethanol-induced gastric ulcer in mice, compared to the model group; for Gastri ulcer score (X ± SD): dose equimolar to azulene sulfonate sodium 3.0 mg/kg (Omeprazole 13.4 mg/kg), model group 13.00 ± 1.77; for Ulcer score (X ± SD): equimolar doses, model group 20.33 ± 12.23
Experimental: Kunming mice, half male and half female, weighing 18-22 g, provided by the West China Animal Center
(1) Azulene sodium sulphonate was added with 0.5% CMC to prepare a suspension with concentration of 0.15 mg/ml.
(2) 20 mg of Omeprazole was added with 0.5% CMC to prepare a suspension with concentration of 0.67 mg/ml.
Kunming mice were randomly grouped according the body weight (one model control group or negative control group, one Omeprazole control group or positive control group, one Azulene sodium sulphonate control group, twelve test drug groups), eight mice for each group, half male and half female.
Administration: Model control group was administrated intragastrically with 0.5% CMC solution at a dose of 0.4 ml/20 g; Omeprazole control group was administrated intragastrically with Omeprazole at a dose of 0.4 ml/20 g, Azulene sodium sulphonate control group and each test drug groups were administrated intragastrically with their respective drug at a dose of 0.4 ml/20 g. The mice in each group were administrated once a day for successive five days. 0.5 hour after final administration, the mice in each group were administrated intragastrically with 0.5 ml of anhydrous ethanol, one hour later the mice were executed and dissected, and their stomaches were taken, washed and scored according to the pathological degree. For local congestion and rubefaction, score was 1; for petechial hemorrhage or erosion, score was respectively 1, for each linear erosion, score was 3. Statistical analysis was performed. Ulcer scores were calculated, significant differences between the groups were compared and the inhibition rates of ulcer were calculated [Inhibition rate of ulcer=(ulcer score of model group−ulcer score of drug administration group)/ulcer score of model group].

[6] = Table 6, model group 17.86 ± 8.43
[7] = Table 7, model group 19.71 ± 7.18

Structure (SMILES) | Melting point Day 0 [1] | Spot numbers on TLC Day 0 [1] | Melting point Day 5 [1] | Spot numbers on TLC Day 5 [1] | Appearance Day 5 [1] | Melting point Day 10 [1] | Spot numbers on TLC Day 10 [1] | Appearance Day 10 [1] | Melting point Day 0 [2] | Spot numbers on TLC Day 0 [2] | hygroscopic rate (%) Day 0 [2] [%] | Appearance Day 0 [2] | Melting point Day 5 [2] | Spot numbers on TLC Day 5 [2] | melting point [°C] | Inhibition rate (%) ([5]; Table 6) | Gastric ulcer score (X ± SD) [5, 6] | anti-gastric ulcer effect in words [5] | Inhibition rate (%) ([5]; Table 7) | Gastric ulcer score (X ± SD) [5, 7] | also measured
Cc1cc(S(=O)(=O)NC(C)C)c2c(C)ccc(C(C)C)cc1-2 [4c, N,5-diisopropyl-3,8-dimethyl-1-azulene sulfonamide] | 127.5-130.0 °C | 1 | 127.5-129.5 °C | 1 | purple | 127.5-129.5 °C | 1 | purple | 127.5-130.0 °C | 1 | 0.95 | purple | 128.0-130.5 °C | 1 | 128 to 130 |  |  |  |  |  | hygroscopic rate (%) Day 5 [2]: 1.32%; Appearance Day 5 [2]: purple; Melting point Day 10 [2]: 128.0-130.5 °C; Spot numbers on TLC Day 10 [2]: 1; Appearance Day 10 [2]: purple; Melting point Day 0 [3]: 127.5-130.0 °C; Spot numbers on TLC Day 0 [3]: 1; Appearance Day 0 [3]: purple; Melting point Day 5 [3]: 127.0-129.5 °C; Spot numbers on TLC Day 5 [3]: 1; Appearance Day 5 [3]: purple; Melting point Day 10 [3]: 125.0-126.5 °C; Spot numbers on TLC Day 10 [3]: 2; Appearance Day 10 [3]: purple; light, humidity and heat stability in words [4]: better light, humidity and heat stability than azulene sulfonate sodium
Cc1cc(S(=O)(=O)NCC(C)C)c2c(C)ccc(C(C)C)cc1-2 [4e, N-isobutyl-3,8-dimethyl-5-isopropyl-1-azulene sulfonamide] | 117.0-118.0 °C | 1 | 117.5-118.5 °C | 1 | purple | 117.5-118.5 °C | 1 | purple | 117.0-118.0 °C | 1 | 1.07 | purple | 116.5-118.5 °C | 1 | 117 to 118 |  |  |  |  |  | hygroscopic rate (%) Day 5 [2]: 1.51%; Appearance Day 5 [2]: purple; Melting point Day 10 [2]: 116.5-118.5 °C; Spot numbers on TLC Day 10 [2]: 1; Appearance Day 10 [2]: purple; Melting point Day 0 [3]: 117.0-118.0 °C; Spot numbers on TLC Day 0 [3]: 1; Appearance Day 0 [3]: purple; Melting point Day 5 [3]: 117.5-118.0 °C; Spot numbers on TLC Day 5 [3]: 1; Appearance Day 5 [3]: purple; Melting point Day 10 [3]: 115.0-117.5 °C; Spot numbers on TLC Day 10 [3]: 2; Appearance Day 10 [3]: purple; light, humidity and heat stability in words [4]: better light, humidity and heat stability than azulene sulfonate sodium
COC(=O)C(Cc1c[nH]c2ccccc12)NS(=O)(=O)C1=C2C(C)=C=C=C(C(C)C)C=C2C(C)=C1 (stereo not shown) [5d, N-2-(indol-3-methyl)-2-methoxyformyl methylene-3′,8′-dimethyl-5′-isopropyl azulene-1′-sulfonamide] |  |  |  |  |  |  |  |  |  |  |  |  |  |  | 178 to 180 | 51.23 | 8.71 ± 4.93 | stronger and more significant anti-gastric ulcer capability |  |  | 
COC(=O)CCNS(=O)(=O)C1=C2C(C)=C=C=C(C(C)C)C=C2C(C)=C1 [5h, N-3-methoxyformylethyl-3′,8′-dimethyl-5′-isopropyl azulene-1′-sulfonamide] |  |  |  |  |  |  |  |  |  |  |  |  |  |  | 94 to 96 | 50.78 | 8.79 ± 4.38 | stronger and more significant anti-gastric ulcer capability |  |  | 
CC1=C=C=C(C(C)C)C=C2C(C)=CC(S(=O)(=O)NC(CC(C)C)C(=O)O)=C12 (stereo not shown) [6b, N-2-(2-methylpropyl)-2-carboxymethylene-3′,8′-dimethyl-5′-isopropyl azulene-1′-sulfonamide] |  |  |  |  |  |  |  |  |  |  |  |  |  |  | 44 to 46 |  |  | stronger and more significant anti-gastric ulcer capability | 50.94 | 9.67 ± 4.25 | 
Cc1cc(S(=O)(=O)NC(Cc2c[nH]c3ccccc23)C(=O)O)c2c(C)ccc(C(C)C)cc1-2 (stereo not shown) [6c, N-2-(indol-3-methyl)-2-carboxymethylene-3′,8′-dimethyl-5′-isopropyl azulene-1′-sulfonamide] |  |  |  |  |  |  |  |  |  |  |  |  |  |  |  |  |  | stronger and more significant anti-gastric ulcer capability | 55.05 | 8.86 ± 4.81 | 
CC1=C=C=C(C(C)C)C=C2C(C)=CC(S(=O)(=O)NCC(=O)N/N=C/c3cccs3)=C12 [8a] |  |  |  |  |  |  |  |  |  |  |  |  |  |  | 69 to 70 |  |  | stronger and more significant anti-gastric ulcer capability | 48.96 | 10.06 ± 5.60 | 
Cc1cc(S(=O)(=O)[O-])c2c(C)ccc(C(C)C)cc1-2.[Na+] [Azulene sulfonate sodium, 3,8-dimethyl-5-isopropyl azulene-1-sodium sulphonate, reference compound] | 104.0-106.0 °C | 1 | 102.5-104.0 °C | 2 | blue flake | 98.5-100.0 °C | 4 | light blue | 104.0-106.0 °C | 1 | 2.16 | dark | 100.5-105.5 °C | 3 |  | 52.80 | 8.43 ± 5.74 |  | 52.16 | 9.43 ± 5.74 | hygroscopic rate (%) Day 5 [2]: 3.69%; Appearance Day 5 [2]: blue; Melting point Day 10 [2]: 98.5-102.0 °C; Spot numbers on TLC Day 10 [2]: 3; Appearance Day 10 [2]: light; Melting point Day 0 [3]: 104.0-106.0 °C; Spot numbers on TLC Day 0 [3]: 1; Appearance Day 0 [3]: dark blue; Melting point Day 5 [3]: 102.5-105.5 °C; Spot numbers on TLC Day 5 [3]: 3; Appearance Day 5 [3]: blue; Melting point Day 10 [3]: 98.54-103.5 °C; Spot numbers on TLC Day 10 [3]: >4; Appearance Day 10 [3]: light; Inhibition rate (%) ([5]; Table 4): 45.08%; Gastri ulcer score (X ± SD) ([5]; Table 4): 7.14 ± 4.73; Inhibition rate (%) ([5]; Table 5): 32.56%; Ulcer score (X ± SD) ([5]; Table 5): 13.71 ± 10.75; light stability and heat stability in words ([4]; background statement, found by experiments): poor light stability and heat stability
COc1ccc2[nH]c([S+]([O-])Cc3ncc(C)c(OC)c3C)nc2c1 (stereo not shown) [Omeprazole, reference compound] |  |  |  |  |  |  |  |  |  |  |  |  |  |  |  | 59.41 | 7.25 ± 7.15 |  | 58.25 | 8.23 ± 3.18 | Inhibition rate (%) ([5]; Table 4): 47.23%; Gastri ulcer score (X ± SD) ([5]; Table 4): 6.86 ± 3.77; Inhibition rate (%) ([5]; Table 5): 36.74%; Ulcer score (X ± SD) ([5]; Table 5): 12.86 ± 11.89
